From patent US20240277890A1, “ANTIMICROBIAL ARTICLES COMPRISING POLYURETHANE” (Amicoat AS, priority 2021, published 2024)
≈ marks a conversion by molar mass, not a printed value.

Assays:
[1] = test system: Streptococcus agalactiae - antibiotic-susceptible clinical isolate
[2] = test system: Staphylococcus epidermidis antibiotic susceptible clinical isolate
[3] = test system: EMRSA3 Staphylococcus aureus (MRSA) - SSCmec type 1; settings: EMRSA3 - SSCmec type 1
[4] = test system: Candida tropicalis ATCC750 - reference strain
[5] = test system: Staphylococcus haemolyticus - antibiotic susceptible clinical isolate
[6] = test system: Corynebacterium jeikeium - antibiotic-susceptible clinical isolate
[7] = test system: Methicillin resistant Staphylococcus epidermidis (MRSE) strain ATCC 27626; settings: ATCC 27626
[8] = test system: Moraxella catarrhalis - reduced fluoroquinolone susceptibility clinical isolate
[9] = test system: Enterococcus gallinarum vancomycin-resistant (VanC) clinical isolate
[10] = test system: Staphylococcus saprophyticus - antibiotic susceptible clinical isolate
[11] = test system: Staphylococcus aureus ATCC 43300 - methicillin-resistant control strain
[12] = test system: Methicillin resistant Staphylococcus aureus (MRSA) strain ATCC 33591; settings: ATCC 33591
[13] = test system: Staphylococcus aureus - methicillin-resistant clinical isolate
[14] = test system: Pseudomonas aeruginosa - multi-drug resistant clinical isolate
[15] = test system: Staphylococcus aureus ATCC 29213 - antibiotic-susceptible control strain; settings: ATCC 29213
[16] = test system: Candida (Issatchenkia) krusei ATCC6258 - reference strain
[17] = test system: Corynebacterium jeikeium - multi-drug resistant clinical isolate
[18] = test system: Trichophyton mentagrophytes - G.R. Micro collection
[19] = test system: Staphylococcus epidermidis methicillin-resistant clinical isolate
[20] = test system: Streptococcus bovis - macrolide-resistant clinical isolate
[21] = test system: HT2001254 Staphylococcus aureus (MRSA) - PVL positive; settings: HT2001254 S. aureus (MRSA) PVL positive
[22] = test system: Staphylococcus aureus, strain ATCC 25923; settings: ATCC 25923
[23] = test system: Streptococcus pyogenes CS301; assay: Murine skin infection model, one day topical treatment; assay type: in vivo, mice
Protocol: (§1) The skin of mice was infected with Staphylococcus aureus or Streptococcus pyogenes and subsequently given a total of three treatments at three hourly intervals. Three hours after the last treatment, skin biopsies were collected and the number of colony forming units (CFUs) present in the skin sample was determined. Results are shown in FIGS. 3, 4 and 5 expressed as the number of colony forming units per mouse.

[24] = test system: Staphylococcus aureus FDA486; assay: as above; assay type: in vivo, mice; settings: cream or gel containing 2% (w/w) of compound; three topical treatments at three hourly intervals; compared to placebo
Protocol: as §1

[25] = test system: Cryptococcus neoformans - G.R. Micro collection
[26] = test system: Moraxella catarrhalis - β-lactamase positive clinical isolate
[27] = test system: EMRSA15 Staphylococcus aureus (MRSA) - SSCmec type 4; settings: EMRSA15 - SSCmec type 4
[28] = test system: Staphylococcus aureus ATCC 25923 - antibiotic-susceptible control strain

CC(C)NC(=O)[C@H](CCCNC(=N)N)NC(=O)[C@H](Cc1c(C(C)(C)C)[nH]c2c(C(C)(C)C)cc(C(C)(C)C)cc12)NC(=O)[C@@H](N)CCCNC(=N)N [Compound 7]
MIC [1]: 8 µg/mL (≈ 11 µM)
MIC [2]: 4 µg/mL (≈ 5.51 µM)
MIC [3]: 8 µg/mL (≈ 11 µM)
MIC [4]: 4 µg/mL (≈ 5.51 µM)
MIC [5]: 4 µg/mL (≈ 5.51 µM)
MIC [6]: 8 µg/mL (≈ 11 µM)
MRSE (MIC) [7]: <2 µg/mL
E. coli (MIC) (E. coli): 7 µg/mL
MIC [8]: 8 µg/mL (≈ 11 µM)
MIC [9]: 8 µg/mL (≈ 11 µM)
S. pyogenes (MIC) (S. pyogenes): <2 µg/mL
MIC [10]: 2 µg/mL (≈ 2.75 µM)
MIC [11]: 8 µg/mL (≈ 11 µM)
MRSA (MIC) [12]: <2 µg/mL
MIC [13]: 8 µg/mL (≈ 11 µM)
MIC [14]: 8 µg/mL (≈ 11 µM)
MIC [15]: 8 µg/mL (≈ 11 µM)
MIC [16]: 8 µg/mL (≈ 11 µM)
MIC [17]: 8 µg/mL (≈ 11 µM)
MIC [18]: 8 µg/mL (≈ 11 µM)
MIC [19]: 4 µg/mL (≈ 5.51 µM)
MIC [20]: 8 µg/mL (≈ 11 µM)
C. albicans (MIC) (C. albicans): 25 µg/mL
MIC [21]: 8 µg/mL (≈ 11 µM)
P. aeruginosa (MIC) (P. aeruginosa): 7 µg/mL
S. aureus (MIC) [22]: <2 µg/mL
number of CFUs in skin biopsy ([23]; 1% or 2% gel, three topical treatments at three hourly intervals, compared to placebo gel and bactroban): more effective at reducing the number of CFUs from a Streptococcus pyogenes CS 301 infection than the placebo gel or the bactroban
number of CFUs in skin biopsy, 2% gel versus 1% gel ([23]; gel containing 2% compared to gel containing 1%): more effective than the gel containing only 1% of compound 7
number of CFUs in skin biopsy [24]: the number of CFUs was reduced
MIC [25]: 8 µg/mL (≈ 11 µM)
MIC [26]: 4 µg/mL (≈ 5.51 µM)
MIC [27]: 8 µg/mL (≈ 11 µM)
MIC [28]: 8 µg/mL (≈ 11 µM)
